Assay: Unit input response, intravenous bolus plasma concentration
Assay type: in vivo
Conditions: human, read-out: Plasma Concentration of API A
Excerpt: In predicting plasma concentration time profiles, we used two steps. First, we time scaled in vitro release profiles to use as our reference. Second, we obtained convolution of time-scaled in vitro release profile with unit input response (UIR) we obtained using intravenous bolus dose profile in a physiologically based pharmacokinetic model (PBPK).
FIG. 18 illustrates use of convolution of time-scaled in vitro release profile data (panel A, Table 4) with unit input response (UIR) obtained using an intravenous bolus dose (panel B, Table 5) to generate predictive plasma concentration-time profiles (panel C, Table 6). Panel A includes time-scaled mean in vitro release profiles of various solution-based subcutaneous long acting injectables of API. Panel C includes observed versus predicted mean plasma concentration-time profiles in humans for various solution-based subcutaneous long acting injectables of API A.

A concentration at 0 days (0.00 days) of 0 ng/mL, a concentration at 0.04 days (0.04 days) of 162 ng/mL and a concentration at 0.08 days (0.08 days) of 27.7 ng/mL were found for `CC(C)(C#Cc1ccc(-c2ccc(Cl)c3c(NS(C)(=O)=O)nn(CC(F)(F)F)c23)c([C@H](Cc2cc(F)cc(F)c2)NC(=O)Cn2nc(C(F)(F)F)c3c2C(F)(F)[C@@H]2C[C@H]32)n1)S(C)(=O)=O` [API A, Lenacapavir] in this work. For the same molecule, the concentration at 0.17 days (0.17 days) was 14 ng/mL, the concentration at 0.25 days (0.25 days) was 7.73 ng/mL and the concentration at 0.33 days (0.33 days) was 5.71 ng/mL. The concentration at 0.5 days (0.50 days) was 4.68 ng/mL, the concentration at 1 days (1.00 days) was 4.33 ng/mL and the concentration at 2 days (2.00 days) was 4.37 ng/mL. For the same molecule, the concentration at 3 days (3.00 days) was 4.29 ng/mL, the concentration at 5 days (5.00 days) was 3.49 ng/mL and the concentration at 7 days (7.00 days) was 3.45 ng/mL. It also gave a concentration at 9 days (9.00 days) of 2.84 ng/mL, a concentration at 11 days (11.00 days) of 2.61 ng/mL and a concentration at 14 days (14.00 days) of 2.33 ng/mL. It also gave a concentration at 20.92 days (20.92 days) of 1.71 ng/mL, a concentration at 27.92 days (27.92 days) of 1.1 ng/mL and a concentration at 34.96 days (34.96 days) of 0.71 ng/mL. The concentration at 41.96 days (41.96 days) was 0.43 ng/mL and the concentration at 55.96 days (55.96 days) was 0.25 ng/mL.

Source: patent US20250354970A1, “SYSTEMS, METHODS, AND APPARATUSES FOR CHARACTERIZING RELEASE PROFILES FOR LONG-ACTING INJECTABLE MEDICATIONS” (Gilead Sciences, Inc., priority 2024, published 2025)
